Converted amounts (≈) assume the structure as drawn.
Columns and labels:
Plasmodium berghei [1] = experiment: Antimalarial activity against Plasmodium berghei ANKA expressing GFP infected in Balb/c mouse assessed as mouse survival at 30 mg/kg, po qd administered as single dose on day 3 to 5 of exposure measured on day 6 post exposure by in vivo thomson test relative to control; format: functional
in vitro = conditions: pampa, pH 7.4
Description: (§1) Effective permeability of the compound at pH 7.4 by PAMPA

Plasmodium berghei [2] = experiment: Antimalarial activity against Plasmodium berghei ANKA expressing GFP infected in Balb/c mouse assessed as mouse survival at 50 mg/kg, po qd administered as single dose on day 3 to 5 of exposure measured on day 6 post exposure by in vivo thomson test relative to control; format: functional
Plasmodium falciparum [3] = experiment: Antimalarial activity against multi-drug-resistant Plasmodium falciparum W2 infected in human type A+ erythrocytes assessed as growth inhibition after 72 hrs by SYBR Green I assay; format: functional, organism-based; conditions: W2, 72 h
Plasmodium berghei [4] = experiment: Antimalarial activity against Plasmodium berghei ANKA expressing GFP infected in Balb/c mouse assessed as mouse survival at 10 mg/kg, po qd administered as single dose on day 3 to 5 of exposure measured on day 6 post exposure by in vivo thomson test relative to control; format: functional
Plasmodium berghei [5] = experiment: Antimalarial activity against Plasmodium berghei ANKA expressing GFP infected in Balb/c mouse assessed as mouse cured from disease at 10 mg/kg, po qd administered as single dose on day 3 to 5 of exposure measured on day 30 post exposure by in vivo thomson test relative to control; format: functional
Plasmodium berghei [6] = experiment: Antimalarial activity against Plasmodium berghei ANKA expressing GFP infected in Balb/c mouse assessed as inhibition of parasitemia at 10 mg/kg, po qd administered as single dose on day 3 to 5 of exposure measured on day 6 post exposure by in vivo thomson test relative to control; format: functional
J774 = experiment: Cytotoxicity against mouse J774 cells after 72 hrs by CellTiter 96 assay; format: cell-based; conditions: J774, 72 h
[7] = Aqueous solubility of the compound at pH 7.4; format: physicochemical; conditions: buffer
Plasmodium berghei [8] = experiment: Antimalarial activity against Plasmodium berghei ANKA expressing GFP infected in Balb/c mouse assessed as inhibition of parasitemia at 50 mg/kg, po qd administered as single dose on day 3 to 5 of exposure measured on day 6 post exposure by in vivo thomson test relative to control; format: functional
[9] = octanol/water, pH 7.4
Plasmodium berghei [10] = experiment: Antimalarial activity against Plasmodium berghei ANKA expressing GFP infected in Balb/c mouse assessed as mouse cured from disease at 50 mg/kg, po qd administered as single dose on day 3 to 5 of exposure measured on day 30 post exposure by in vivo thomson test relative to control; format: functional
[11] = Cytotoxicity index, ratio of EC50 for mouse J774 cells to EC50 for multi-drug-resistant Plasmodium falciparum TM90-C2B infected in human type A+ erythrocytes; format: toxicity, cell-based; conditions: read-out: Ratio EC50
Plasmodium falciparum [12] = experiment: Antimalarial activity against multi-drug-resistant Plasmodium falciparum TM90-C2B infected in human type A+ erythrocytes assessed as growth inhibition after 72 hrs by SYBR Green I assay; format: functional, organism-based
[13] = Resistance index, ratio of EC50 for multi-drug-resistant Plasmodium falciparum TM90-C2B infected in human type A+ erythrocytes to EC50 for multi-drug-resistant Plasmodium falciparum W2 infected in human type A+ erythrocytes; format: functional
[14] = Intrinsic clearance in human liver microsomes at 1 uM by LC-MS analysis; format: ADME; conditions: liver microsomes, read-out: CLH
[15] = Plasma clearance in Sprague-Dawley rat at 0.15 mg/kg, iv; format: ADME, organism-based; set-up: dose 0.15 mg/kg, route intravenous
Plasmodium berghei [16] = experiment: Antimalarial activity against Plasmodium berghei ANKA expressing GFP infected in Balb/c mouse assessed as inhibition of parasitemia at 1 mg/kg, po qd administered as single dose on day 3 to 5 of exposure measured on day 6 post exposure by in vivo thomson test relative to control; format: functional
Plasmodium berghei [17] = experiment: Antimalarial activity against Plasmodium berghei ANKA expressing GFP infected in Balb/c mouse assessed as inhibition of parasitemia at 3 mg/kg, po qd administered as single dose on day 3 to 5 of exposure measured on day 6 post exposure by in vivo thomson test relative to control; format: functional
Plasmodium berghei [18] = experiment: Antimalarial activity against Plasmodium berghei ANKA expressing GFP infected in Balb/c mouse assessed as mouse survival at 1 mg/kg, po qd administered as single dose on day 3 to 5 of exposure measured on day 6 post exposure by in vivo thomson test relative to control; format: functional
[19] = Volume of distribution in Sprague-Dawley rat at 0.15 mg/kg, iv; format: ADME, organism-based; set-up: dose 0.15 mg/kg, route intravenous; conditions: in vivo
[20] = Apparent oral bioavailability in Sprague-Dawley rat at 10 mg/kg; format: ADME, organism-based; conditions: in vivo
Plasmodium berghei [21] = experiment: Antimalarial activity against Plasmodium berghei ANKA expressing GFP infected in Balb/c mouse assessed as mouse survival at 3 mg/kg, po qd administered as single dose on day 3 to 5 of exposure measured on day 6 post exposure by in vivo thomson test relative to control; format: functional
Plasmodium berghei [22] = experiment: Antimalarial activity against Plasmodium berghei ANKA expressing GFP infected in Balb/c mouse assessed as mouse cured from disease at 3 mg/kg, po qd administered as single dose on day 3 to 5 of exposure measured on day 30 post exposure by in vivo thomson test relative to control; format: functional
Rattus norvegicus = experiment: Half life in Sprague-Dawley rat at 0.15 mg/kg, iv; format: ADME, organism-based; set-up: dose 0.15 mg/kg, route intravenous; conditions: in vivo
Liver = experiment: Half life in mouse liver microsomes at 1 uM by LC-MS analysis; format: ADME
[23] = pampa, pH 7.4
Description: as §1

Plasmodium berghei [24] = experiment: Antimalarial activity against Plasmodium berghei ANKA expressing GFP infected in Balb/c mouse assessed as inhibition of parasitemia at 0.3 mg/kg, po qd administered as single dose on day 3 to 5 of exposure measured on day 6 post exposure by in vivo thomson test relative to control; format: functional
Plasmodium berghei [25] = experiment: Antimalarial activity against Plasmodium berghei ANKA expressing GFP infected in Balb/c mouse assessed as mouse survival at 0.3 mg/kg, po qd administered as single dose on day 3 to 5 of exposure measured on day 6 post exposure by in vivo thomson test relative to control; format: functional

SMILES	EC50 (Plasmodium falciparum [3])	survival time at 10 mg/kg (Plasmodium berghei [4])	Activity (Plasmodium berghei [5])	inhibition in vivo at 10 mg/kg (Plasmodium berghei [6])	EC50 (J774)	solubility kinetic [7]	logD [9]	selectivity ratio [11]	EC50 (Plasmodium falciparum [12])	Ratio EC50 [13]	inhibition in vivo at 1 mg/kg (Plasmodium berghei [16])	inhibition in vivo at 3 mg/kg (Plasmodium berghei [17])	survival at 1 mg/kg (Plasmodium berghei [18])	survival time at 3 mg/kg (Plasmodium berghei [21])	Activity (Plasmodium berghei [22])	further results
CCN(CC)Cc1cc(Nc2ccnc3cc(Cl)ccc23)ccc1O [AMODIAQUINE]																survival at 30 mg/kg (Plasmodium berghei [1]): 23 days
COc1cc2[nH]c(C)c(-c3ccc(Cl)cc3C)c(=O)c2cc1Cl	14.2 nM	5 days	0%	95%	> 28700 nM	< 2 µM	2.9									Papp (in vitro): 369 ×10⁻⁶ cm/s; mouse survival time at 50 mg/kg (Plasmodium berghei [2]): 5 days; inhibition in vivo at 50 mg/kg (Plasmodium berghei [8]): 71%; Activity (Plasmodium berghei [10]): 0%
COc1cc2[nH]c(C)c(-c3cccnc3)c(=O)c2cc1Cl	748 nM				> 33300 nM			> 277	120 nM	0.16						microsomal CLint at 1 µM [14]: 15 µL/min/mg
COc1cc2[nH]c(C)c(-c3ccc(Oc4ccc(OC(F)(F)F)cc4)cc3F)c(=O)c2cc1Cl	3.74 nM	23 days	100%	99.5%	> 20200 nM	< 2 µM	3.4	> 1330	15.2 nM	4.07	99.3%	99.3%	23 days	23 days	100%	clearance [15]: 0.3 mL/min/kg; mouse survival time at 50 mg/kg (Plasmodium berghei [2]): 23 days; Vd [19]: 0.7 L/kg; bioavailability [20]: 14%; inhibition in vivo at 50 mg/kg (Plasmodium berghei [8]): 99.2%; Activity (Plasmodium berghei [10]): 100%; t1/2 (Rattus norvegicus): 32 h
CCCCCCCc1c(C)nc2cc(OC)ccc2c1O																t1/2 (Liver): 7.9 min
COc1cc2[nH]c(C)c(-c3ccc(-c4ccc(C(F)(F)F)cc4F)nc3)c(=O)c2cc1Cl	0.602 nM	23 days	100%	95.2%	> 21600 nM	6 to 12 µM (≈ 2.78 to 5.55 µg/mL)	3.7	> 20400	1.06 nM	1.76	94.5%	96.3%	23 days	23 days	100%	Peff [23]: 1070 ×10⁻⁶ cm/s; inhibition in vivo at 0.3 mg/kg (Plasmodium berghei [24]): 94.3%; survival at 0.3 mg/kg (Plasmodium berghei [25]): 23 days
COc1cc2[nH]c(C)c(-c3ccc(-c4ccc(OC(F)(F)F)cc4)nc3)c(=O)c2cc1Cl	0.686 nM	23 days	100%	97.3%	> 21700 nM	6 to 12 µM (≈ 2.77 to 5.53 µg/mL)	3.7	> 10700	2.03 nM	2.95	95.8%	97.3%	23 days	23 days	80%	inhibition in vivo at 0.3 mg/kg (Plasmodium berghei [24]): 93.9%; survival at 0.3 mg/kg (Plasmodium berghei [25]): 23 days

Source: ChEMBL document CHEMBL3351419, “Orally bioavailable 6-chloro-7-methoxy-4(1H)-quinolones efficacious against multiple stages of Plasmodium” (J Med Chem, 2014)
